What was measured:
[1] = system: Spodoptera littoralis (Egyptian Cotton Leafworm); assay: Spodoptera littoralis cotton leaf disc spray test; assay type: in vivo; details: foliar, 72 h, 200 ppm sprayed on cotton leaf discs, 5 L1 larvae, mortality, repellent effect, feeding behaviour, growth regulation 3 days after treatment
From the text: Spodoptera littoralis (Egyptian Cotton Leafworm)
Cotton leaf discs were placed on agar in a 24-well microtiter plate and sprayed with test solutions at an application rate of 200 ppm. After drying, the leaf discs were infested with 5 L1 larvae. The samples were checked for mortality, repellent effect, feeding behaviour, and growth regulation 3 days after treatment (DAT). The following compounds gave at least 80% control of Spodoptera littoralis: • I-3, I-26, I-29, I-30, I-49, I-52, I-53, I-75, I-417, I-532, I-578, I-785, I-854, I-877, II-49, III-49, V-49, XII-49, XIV-26, XV-26, XXIV-2, XXIV-46, XXIV-90, XXIV-93, XXIV-94, XXV-26 and XXV-49.

[2] = system: Aedes aegypti (Yellow Fever Mosquito); assay: Aedes aegypti larvae test in microtiter plates; assay type: in vivo; details: 48 h, larvae (L2) with nutrition mixture, mortality and growth inhibition 2 days later
From the text: 10-15 Aedes larvae (L2) together with a nutrition mixture are placed in 96-well microtiter plates. Test solutions at an application rate of 2 ppm are pipetted into the wells. 2 days later, insects were checked for mortality and growth inhibition. The following compounds gave at least 80% control of Aedes aegypti • I-3, I-26, I-29, I-30, I-49, I-52, I-53, I-72, I-75, I-76, III-49, III-118, XIV-26, XV-26, XXIV-2, XXIV-46, XXIV-90, XXIV-93, XXIV-94 and XXV-68.

[3] = system: Myzus persicae (Green Peach Aphid); assay: Myzus persicae sunflower leaf disc spray test; assay type: in vivo; details: foliar, 144 h, 200 ppm sprayed on sunflower leaf discs, aphid population of mixed ages, mortality after 6 DAT
Description: Sunflower leaf discs were placed on agar in a 24-well microtiter plate and sprayed with test solutions at an application rate of 200 ppm. After drying, the leaf discs were infested with an aphid population of mixed ages. After an incubation period of 6 DAT, samples were checked for mortality. The following compounds gave at least 80% control of Myzus persicae: • I-3, I-26, I-29, […], I-30, I-49, I-52, I-53, I-72, I-75, III-49, V-49, XXIV-46, XXIV-90 and XXIV-94.

[4] = system: Heliothis virescens (Tobacco Budworm); assay: Heliothis virescens egg test on artificial diet; assay type: in vivo; details: 96 h, 200 ppm by pipetting, eggs (0-24 h old) on artificial diet, egg mortality, larval mortality, growth regulation after 4 days
Description: Eggs (0-24 h old) were placed in 24-well microtiter plate on artificial diet and treated with test solutions at an application rate of 200 ppm by pipetting. After an incubation period of 4 days, samples were checked for egg mortality, larval mortality, and growth regulation. The following compounds gave at least 80% control of Heliothis virescen: • I-3, I-6, I-7, I-26, I-29, I-30, I-47, I-49, I-52, I-53, I-72, I-75, I-417, I-532, I-578, I-785, I-854, I-877, III-49, V-49, XII-49, XIV-26, XIV-49, XV-26, XVI-26, XVII-26, XXIV-2, XXIV-46, XXIV-90, XXIV-93, XXIV-94, XXV-2, XXV-26, XXV-49 and XXV-68.

Row | melting point | Structure (SMILES) | pest or weed control at 200 ppm [1] | pest or weed control at 2 ppm [2] | pest or weed control at 200 ppm [3] | pest or weed control at 200 ppm [4]
1 |  | O=C(Nc1ccccc1N1CCN(C/C=C/c2ccc(Cl)cc2)CC1)c1ccnc(Cl)c1 [Compound I-3, 2-chloro-N-(2-{4-[(E)-3-(4-chloro-phenyl)-allyl]-piperazin-1-yl}-phenyl)-isonicotinamide] | ≥ 80% | ≥ 80% | ≥ 80% | ≥ 80%
2 |  | O=C(Nc1ccc(Cl)cc1N1CCN(C/C=C/c2ccc(C(F)(F)F)cc2)CC1)c1ccnc(Cl)c1 [Compound I-52, 2-chloro-N-(4-chloro-2-{4-[(E)-3-(4-trifluoromethyl-phenyl)-allyl]-piperazin-1-yl}-phenyl)-isonicotinamide] | ≥ 80% | ≥ 80% | ≥ 80% | ≥ 80%
3 |  | O=C(Nc1cccnc1N1CCN(C/C=C/c2ccc(Cl)cc2)CC1)c1ccnc(Cl)c1 [XXIV-2, 2-chloro-N-(2-{4-[(E)-3-(4-chloro-phenyl)-allyl]-piperazin-1-yl}-pyridin-3-yl)-isonicotinamide] | ≥ 80% | ≥ 80% |  | ≥ 80%
4 | 85 to 88 °C | Cc1nn(C)c(N2CCN(C/C=C/c3ccc(Cl)cc3)CC2)c1NC(=O)c1ccnc(Cl)c1 [Example 8, 2-Chloro-N-(5-{4-[(E)-3-(4-chloro-phenyl)-allyl]-piperazin-1-yl}-1,3-dimethyl-1H-pyrazol-4-yl)-isonicotinamide] |  |  |  | 
5 |  | O=C(Nc1cc(Cl)cnc1N1CCN(C/C=C/c2ccc(C(F)(F)F)cc2)CC1)c1ccnc(Cl)c1 [XXIV-93, 2-chloro-N-(5-chloro-2-{4-[(E)-3-(4-trifluoromethyl-phenyl)-allyl]-piperazin-1-yl}-pyridin-3-yl)-isonicotinamide] | ≥ 80% | ≥ 80% |  | ≥ 80%
6 |  | O=C(Nc1cc(F)ccc1N1CCN(C/C=C/c2ccc(Cl)cc2)CC1)c1ccnc(Cl)c1 [Compound I-72, 2-chloro-N-(5-fluoro-2-{4-[(E)-3-(4-chloro-phenyl)-allyl]-piperazin-1-yl}-phenyl)-isonicotinamide] |  | ≥ 80% | ≥ 80% | ≥ 80%
7 |  | O=C(Nc1ccc(Cl)cc1N1CCN(Cc2ccc(Cl)cc2)CC1)c1ccnc(Cl)c1 [Compound I-47, 2-Chloro-N-{4-chloro-2-[4-(4-chloro-benzyl)-piperazin-1-yl}-phenyl)-isonicotinamide] |  |  |  | ≥ 80%
8 |  | O=C(Nc1cc(F)ccc1N1CCN(C/C=C/c2ccc(OC(F)(F)F)cc2)CC1)c1ccnc(Cl)c1 [Compound I-76, 2-chloro-N-(5-fluoro-2-{4-[(E)-3-(4-trifluoromethoxy-phenyl)-allyl]-piperazin-1-yl)-phenyl)-isonicotinamide] |  | ≥ 80% |  | 
9 |  | O=C(Nc1ccc(Cl)cc1N1CCN(C/C=C/c2ccc(Cl)cc2)CC1)c1ccnc(Cl)c1 [Compound I-49, 2-chloro-N-(4-chloro-2-{4-[(E)-3-(4-chloro-phenyl)-allyl]-piperazin-1-yl}-phenyl)-isonicotinamide] | ≥ 80% | ≥ 80% | ≥ 80% | ≥ 80%
10 |  | O=C(Nc1ccc(F)cc1N1CCN(C/C=C/c2ccc(C(F)(F)F)cc2)CC1)c1ccnc(Cl)c1 [Compound I-29, 2-chloro-N-(4-fluoro-2-{4-[(E)-3-(4-trifluoromethyl-phenyl)-allyl]-piperazin-1-yl}-phenyl)-isonicotinamide] | ≥ 80% | ≥ 80% | ≥ 80% | ≥ 80%
11 |  | O=C(Nc1cc(Cl)cnc1N1CCN(C/C=C/c2ccc(OC(F)(F)F)cc2)CC1)c1ccnc(Cl)c1 [XXIV-94, 2-chloro-N-(5-chloro-2-{4-[(E)-3-(4-trifluoromethoxy-phenyl)-allyl]-piperazin-1-yl}-pyridin-3-yl)-isonicotinamide] | ≥ 80% | ≥ 80% | ≥ 80% | ≥ 80%
12 |  | O=C(Nc1ccc(F)cc1N1CCN(C/C=C/c2ccc(OC(F)(F)F)cc2)CC1)c1ccnc(Cl)c1 [Compound I-30, 2-chloro-N-(4-fluoro-2-{4-[(E)-3-(4-trifluoromethoxy-phenyl)-allyl]-piperazin-1-yl}-phenyl)-isonicotinamide] | ≥ 80% | ≥ 80% | ≥ 80% | ≥ 80%
13 |  | O=C(Nc1cc(Cl)cnc1N1CCN(C/C=C/c2ccc(Cl)cc2)CC1)c1ccnc(Cl)c1 [XXIV-90, 2-chloro-N-(5-chloro-2-{4-[(E)-3-(4-chloro-phenyl)-allyl]-piperazin-1-yl}-pyridin-3-yl)-isonicotinamide] | ≥ 80% | ≥ 80% | ≥ 80% | ≥ 80%
14 |  | O=C(Nc1ccccc1N1CCN(C/C=C/c2ccc(OC(F)(F)F)cc2)CC1)c1ccnc(Cl)c1 [Compound I-7, 2-chloro-N-(2-{4-[(E)-3-(4-trifluoromethoxy-phenyl)-allyl]-piperazin-1-yl}-phenyl)-isonicotinamide] |  |  |  | ≥ 80%
15 |  | O=C(Nc1cc(F)ccc1N1CCN(C/C=C/c2ccc(C(F)(F)F)cc2)CC1)c1ccnc(Cl)c1 [Compound I-75, 2-chloro-N-(5-fluoro-2-{4-[(E)-3-(4-trifluoromethyl-phenyl)-allyl]-piperazin-1-yl}-phenyl)-isonicotinamide] | ≥ 80% | ≥ 80% | ≥ 80% | ≥ 80%
16 |  | O=C(Nc1ccc(F)cc1N1CCN(C/C=C/c2ccc(Cl)cc2)CC1)c1ccnc(Cl)c1 [Compound I-26, 2-chloro-N-(4-fluoro-2-{4-[(E)-3-(4-chloro-phenyl)-allyl]-piperazin-1-yl}-phenyl)-isonicotinamide] | ≥ 80% | ≥ 80% | ≥ 80% | ≥ 80%
17 |  | O=C(Nc1ccccc1N1CCN(C/C=C/c2ccc(C(F)(F)F)cc2)CC1)c1ccnc(Cl)c1 [Compound I-6, 2-chloro-N-(2-{4-[(E)-3-(4-trifluoromethyl-phenyl)-allyl]-piperazin-1-yl}-phenyl)-isonicotinamide] |  |  |  | ≥ 80%
18 |  | O=C(Nc1ccc(Cl)cc1N1CCN(C/C=C/c2ccc(OC(F)(F)F)cc2)CC1)c1ccnc(Cl)c1 [Compound I-53, 2-chloro-N-(4-chloro-2-{4-[(E)-3-(4-trifluoromethoxy-phenyl)-allyl]-piperazin-1-yl}-phenyl)-isonicotinamide] | ≥ 80% | ≥ 80% | ≥ 80% | ≥ 80%
19 |  | O=C(Nc1ccc(Cl)nc1N1CCN(C/C=C/c2ccc(Cl)cc2)CC1)c1ccnc(Cl)c1 [XXIV-46, 2-chloro-N-(6-chloro-2-{4-[(E)-3-(4-chloro-phenyl)-allyl]-piperazin-1-yl}-pyridin-3-yl)-isonicotinamide] | ≥ 80% | ≥ 80% | ≥ 80% | ≥ 80%
